Tests used:
human IDO1 protease = human IDO1 protease (Homo sapiens (Human), UniProt P14902); test: Inhibitory activity against human IDO1 protease (recombinant enzyme, kynurenine absorbance at 480 nm); format: biochemical; conditions: recombinant human IDO1, L-Tryptophan substrate, 30 min at 37° C.
Description: The inhibitory activity of extracorporal human IDO1 protease was tested through the following method. The inhibition effect of compounds of the present invention against the human IDO1 protease was determined through the method.
(1) Preparation of Human Recombinant IDO1 Protease
BL21 E. Coli were transformed with a correct sequences PET28a-hIDO1 vector. A single colony was inoculated in Luria-Bertani (LB) medium at 37° C. Bacterial cells were then collected through centrifugation. The cell pellets were sonicated, then centrifuged at 4° C. The supernatant was then collected and purified by Ni chromatography to give pure rhIDO1 protease.
(2) The Test of the Compounds
IDO1 enzymatic assay was carried out in a reaction mixture (500 μL/well) containing 50 mmol/L potassium phosphate buffer, 400 μg/mL catalase, 40 mmol/L ascorbic acid, 20 μmol/mL methylene blue, […] L-Tryptophan and the test compound. After the mixture was incubated for 3˜5 min at 37° C., recombinant human IDO1 was added to. The mixture was incubated for another 30 min at 37° C. and the reaction was stopped by adding 200 μL of 30% (w/v) trichloroacetic acid. After heating in a water bath pot at 65° C. for 15 min and centrifugation at 13800×g for 10 min. 100 μL of supernatant was transferred into a well of a 96-well microplate and mixed with the same volume of 2% (w/v) p-(dimethylamino)benzaldehyde in acetic acid. […]. When the color of the mixture became yellow, the mixture was measured for absorbance (D) value at 480 nm using microplate reader.
The inhibitory activity of compounds of the present invention against the human IDO1 protease was determined with the above test.

[1] = biological target: IDO protease in HEK293 cell (Homo sapiens (Human), UniProt P14902); test: Inhibitory activity of IDO protease in HEK293 cell transfected with human IDO gene; format: cell-based; conditions: for IC50: HEK293 cells transfected with pcDNA3.1(+)-hIDO, compounds incubated for 5 hr; for inhibiting effect on IDO protease: result in words, tested by the above assay
Description: 2. Determination of the Inhibitory Activity of IDO Protease in HEK293 Cell
HEK293 cells were seeded in a 96-well microplate at a density of 2.5×10^4 cells/well and were maintained in DMEM (containing 10% fetal bovine serum, 50 U/mL penicillin and […] streptomycin) at 37° C. 24 hours later, HEK-293 cells were transfected with pcDNA3.1 (+)-hIDO vector carrying human IDO gene using Lipofectamine 2000. After 24 hr, the tested compounds were added to the cells and incubated for 5 hr. 140 μL of supernatant was transferred to a well in a new 96-well microplate. 10 μL of 30% (w/v) trichloroacetic acid was added to each sample-containing well and reaction was incubated at 65° C. for 15 min. The reaction mixture was centrifuged at 13000×g for 10 min. The supernatant was mixed with p-(dimethylamino)benzaldehydein acetic acid in the same volume. The yellow pigment derived from kynurenine was measured for absorbance (D) value at 480 nm using a microplate reader.
The inhibitory activity of compounds prepared in Example 1-19 against the IDO protease in HEK293 cell was determined with the above test.

Sequence of human IDO1 protease (P14902 whole entry): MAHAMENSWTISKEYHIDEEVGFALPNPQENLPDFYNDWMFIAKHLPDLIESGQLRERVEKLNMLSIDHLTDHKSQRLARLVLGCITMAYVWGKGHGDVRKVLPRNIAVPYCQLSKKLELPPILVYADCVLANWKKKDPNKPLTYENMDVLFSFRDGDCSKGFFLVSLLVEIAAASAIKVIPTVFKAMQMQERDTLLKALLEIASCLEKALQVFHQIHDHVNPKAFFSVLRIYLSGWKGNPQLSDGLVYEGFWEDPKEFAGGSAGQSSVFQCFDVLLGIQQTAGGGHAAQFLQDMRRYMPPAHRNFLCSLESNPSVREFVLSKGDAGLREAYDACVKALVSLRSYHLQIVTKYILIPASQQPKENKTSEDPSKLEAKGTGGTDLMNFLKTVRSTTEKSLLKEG
Sequence of IDO protease in HEK293 cell (P14902 whole entry): as above

SMILES	IC50 (human IDO1 protease)	IC50 [1]	inhibiting effect on IDO protease [1]
NS(=O)(=O)NCCC1CCC(CCNc2nonc2C(=NO)Nc2ccc(F)c(Br)c2)CC1 (centres unmarked) [Example 8, N-(3-bromo-4-fluorophenyl)-N′-hydroxy-4-((2-(4-(2-(sulfamoylamino)ethyl)cyclohexyl)ethyl)amino)-1,2,5-oxadiazole-3-carboximidamide]	51 nM	45 nM	–
NS(=O)(=O)NCC1CCC(CNc2nonc2C(=NO)Nc2ccc(F)c(Br)c2)CC1 (centres unmarked) [Example 5, N-(3-bromo-4-fluorophenyl)-N′-hydroxy-4-(((4-((sulfamoylamino)methyl)cyclohexyl)methyl)amino)-1,2,5-oxadiazole-3-carboximidamide]	45 nM	14 nM	–
NS(=O)(=O)NCC1CCC(CCNc2nonc2C(=NO)Nc2ccc(F)c(Br)c2)CC1 (centres unmarked) [Example 6, N-(3-bromo-4-fluorophenyl)-N′-hydroxy-4-((2-(4-((sulfamoylamino)methyl)cyclohexyl)ethyl)amino)-1,2,5-oxadiazole-3-carboximidamide]	48 nM	39 nM	–
N=C(Nc1ccc(F)c(Br)c1)c1nonc1NCCC1CCCC(CNS(N)(=O)=O)C1 (centres unmarked) [Compound 14]	–	–	showed the inhibiting effect
NS(=O)(=O)NC1CCCC(CCNc2nonc2C(=NO)Nc2ccc(F)c(Br)c2)C1 (centres unmarked) [Example 12, N-(3-bromo-4-fluorophenyl)-N′-hydroxy-4-((2-(3-(sulfamoylamino)cyclohexyl)ethyl)amino)-1,2,5-oxadiazole-3-carboximidamide]	60 nM	23 nM	–
NS(=O)(=O)NCC1CCCC(Nc2nonc2C(=NO)Nc2ccc(F)c(Br)c2)C1 (centres unmarked) [Example 9, N-(3-bromo-4-fluorophenyl)-N′-hydroxy-4-((3-((sulfamoylamino)methyl)cyclohexyl)amino)-1,2,5-oxadiazole-3-carboximidamide]	64 nM	27 nM	–
NS(=O)(=O)NC1CCC(Nc2nonc2/C(=N/O)Nc2ccc(F)c(Br)c2)CC1 (centres unmarked) [Example 17, N-(3-bromo-4-fluorophenyl)-N′-hydroxy-4-((4-(sulfamoylamino)cyclohexyl)amino)-1,2,5-oxadiazole-3-carboximidamide]	15 nM	10 nM	–
NS(=O)(=O)NCC[C@H]1CC[C@H](Nc2nonc2C(=NO)Nc2ccc(F)c(Br)c2)CC1 [Example 2, trans-N-(3-bromo-4-fluorophenyl)-N′-hydroxy-4-((4-(2-(sulfamoylamino)ethyl)cyclohexyl)amino)-1,2,5-oxadiazole-3-carboximidamide]	46 nM	36 nM	–
NS(=O)(=O)NC1CCCC(CNc2nonc2C(=NO)Nc2ccc(F)c(Br)c2)C1 (centres unmarked) [Example 11, N-(3-bromo-4-fluorophenyl)-N′-hydroxy-4-(((3-(sulfamoylamino)cyclohexyl)methyl)amino)-1,2,5-oxadiazole-3-carboximidamide]	43 nM	18 nM	–
N=C(Nc1ccc(F)c(Br)c1)c1nonc1NCC1CCCC(CCNS(N)(=O)=O)C1 (centres unmarked) [Compound 15]	–	–	showed the inhibiting effect
NS(=O)(=O)NC1CCC(CCNc2nonc2C(=NO)Nc2ccc(F)c(Br)c2)CC1 (centres unmarked) [Example 4, N-(3-bromo-4-fluorophenyl)-N′-hydroxy-4-((2-(4-(sulfamoylamino)cyclohexyl)ethyl)amino)-1,2,5-oxadiazole-3-carboximidamide]	22 nM	36 nM	–
NS(=O)(=O)NC1CCC(CNc2nonc2C(=NO)Nc2ccc(F)c(Br)c2)C1 (centres unmarked) [Compound 19]	–	–	showed the inhibiting effect
NS(=O)(=O)NCCC1CCCC(Nc2nonc2C(=NO)Nc2ccc(F)c(Br)c2)C1 (centres unmarked) [Example 10, N-(3-bromo-4-fluorophenyl)-N′-hydroxy-4-((3-(2-(sulfamoylamino)ethyl)cyclohexyl)amino)-1,2,5-oxadiazole-3-carboximidamide]	59 nM	52 nM	–
NS(=O)(=O)N[C@H]1CC[C@H](Nc2nonc2C(=NO)Nc2ccc(F)c(Br)c2)CC1 [Example 18, trans-N-(3-bromo-4-fluorophenyl)-N′-hydroxy-4-(((1r,4r)-4-(sulfamoylamino)yclohexyl)amino)-1,2,5-oxadiazole-3-carboximidamide]	6 nM	3 nM	–
N=C(Nc1ccc(F)c(Br)c1)c1nonc1NC1CCC(CCNS(N)(=O)=O)C1 (centres unmarked) [Compound 17]	–	–	showed the inhibiting effect
NS(=O)(=O)NC[C@H]1CC[C@H](Nc2nonc2C(=NO)Nc2ccc(F)c(Br)c2)CC1 [Example 1, trans-N-(3-bromo-4-fluorophenyl)-N′-hydroxy-4-((4-((sulfamoylamino)methyl)cyclohexyl)amino)-1,2,5-oxadiazole-3-carboximidamide]	16 nM	8 nM	–
NS(=O)(=O)N[C@H]1CC[C@@H](Nc2nonc2C(=NO)Nc2ccc(F)c(Br)c2)CC1 [Example 19, cis-N-(3-bromo-4-fluorophenyl)-N′-hydroxy-4-(((1s,4s)-4-(sulfamoylamino)cyclohexyl)amino)-1,2,5-oxadiazole-3-carboximidamide]	12 nM	5 nM	–
NS(=O)(=O)N[C@H]1CC[C@H](CNc2nonc2C(=NO)Nc2ccc(F)c(Br)c2)CC1 [Example 3, Trans-N-(3-bromo-4-fluorophenyl)-N′-hydroxy-4-(((4-(sulfamoylamino)cyclohexyl)methyl)amino)-1,2,5-oxadiazole-3-carboximidamide]	38 nM	13 nM	–
NS(=O)(=O)NC1CCC(Nc2nonc2C(=NO)Nc2ccc(F)c(Br)c2)C1 (centres unmarked) [Example 16]	63 nM	42 nM	–
NS(=O)(=O)NCCC1CCC(CNc2nonc2C(=NO)Nc2ccc(F)c(Br)c2)CC1 (centres unmarked) [Example 7, N-(3-bromo-4-fluorophenyl)-N′-hydroxy-4-(((4-(2-(sulfamoylamino)ethyl)cyclohexyl)methyl)amino)-1,2,5-oxadiazole-3-carboximidamide]	74 nM	21 nM	–
NS(=O)(=O)NCCC1CCCC(CCNc2nonc2C(=NO)Nc2ccc(F)c(Br)c2)C1 (centres unmarked) [Compound 16]	–	–	showed the inhibiting effect
NS(=O)(=O)NC1CCN(Nc2nonc2C(=NO)Nc2ccc(F)c(Br)c2)CC1 [Example 15, N-(3-bromo-4-fluorophenyl)-N′-hydroxy-4-((4-(sulfamoylamino)piperidin-1-yl)amino)-1,2,5-oxadiazole-3-carboximidamide]	83 nM	37 nM	–
NS(=O)(=O)NCC1CCC(Nc2nonc2C(=NO)Nc2ccc(F)c(Br)c2)C1 (centres unmarked) [Example 14, N-(3-bromo-4-fluorophenyl)-N′-hydroxy-4-((3-((sulfamoylamino)methyl)cyclopentyl)amino)-1,2,5-oxadiazole-3-carboximidamide]	108 nM	48 nM	–

— patent US10981882B1, “Compound for inhibiting IDO, a manufacturing method and a use thereof” (Shanghai JOYU Pharmatech Ltd., priority 2017, dated 2021)
